According to patent publication US12691112B2, “FGFR tyrosine kinase inhibitors for the treatment of urothelial carcinoma” (Janssen Pharmaceutica NV, priority 2019, dated 2026):
Where two headings read alike, the source gives them in different places.

Test system: subjects with metastatic or surgically unresectable urothelial cancer
Conditions: all-causality
Method: Study treatment was administered on 28-day cycles. […] Patients were randomized 1:1 to 28-day cycles to the following 2 regimens until a regimen was selected for further study: Regimen 1 (10 mg once daily intermittent (7 days on/7 days); Regimen 2 (6 mg once daily continuous). Randomization was stratified according to performance status (0 to 1 vs. 2), hemoglobin value (<10 vs. ≥10 g per dl), FGFR alteration type (mutation vs. fusion), prior treatment status (chemotherapy-resistant vs. chemotherapy naïve), and disease distribution (presence or absence of visceral [liver, lung, bone]metastases). Starting dose selection was based on phase 1 efficacy and tolerability.
Based on interim analysis and pharmacokinetic-pharmacodynamic modeling of serum phosphate levels, starting dose was increased to 8 mg per day continuous (Regimen 3). Thus, after interim analysis, this became a single-arm study. […] Treatment continued until disease progression or unacceptable adverse event(s) per investigator.
Safety was evaluated based on clinical laboratory tests, physical exams, electrocardiograms, and ophthalmology examinations. Adverse events and abnormalities were assessed by investigator and graded per NCI CTCAE v.4.0
Prophylactic measures were taken to minimize risk of common adverse events related to FGFR inhibition. To reduce risk of hyperphosphatemia, a low-phosphate diet was recommended for all patients (600 to 800 mg of dietary phosphate intake per day). To reduce the risk of skin effects, the application of alcohol-free emollient moisturizing cream and avoidance of unnecessary exposure to sunlight, soap, perfumed products, and hot baths was recommended. Patients were asked to keep their fingers and toes clean and nails trimmed to reduce risk of nail effects.
Additional ophthalmology examinations were performed if clinically indicated.

COc1cc(OC)cc(N(CCNC(C)C)c2ccc3ncc(-c4cnn(C)c4)nc3c2)c1 [erdafitinib, N-(3,5-dimethoxy-phenyl)-N′-(1-methylethyl)-N-[3-(1-methyl-1H-pyrazol-4-yl)quinoxalin-6-yl]ethane-1,2-diamine]
44 no.: Hyperphosphatemia, grade 1 (6 mg continuous, n = 78)
13 no.: Decreased appetite, grade 2 (6 mg continuous, n = 78) | Hand-foot syndrome, any grade (6 mg continuous, n = 78) | Lacrimation increased, any grade (6 mg continuous, n = 78) | Onycholysis, any grade (6 mg continuous, n = 78) | Stomatitis, grade 1 (6 mg continuous, n = 78) | Stomatitis, grade 2 (6 mg continuous, n = 78) | Urinary tract infection, any grade (6 mg continuous, n = 78) | Alanine aminotransferase increased, grade 1 (8 mg continuous, n = 99) | Conjunctivitis, any grade (8 mg continuous, n = 99)
10 no.: Constipation, grade 1 (6 mg continuous, n = 78) | Constipation, grade 2 (6 mg continuous, n = 78) | Dry skin, grade 1 (6 mg continuous, n = 78) | Dysgeusia, any grade (6 mg continuous, n = 78) | Lacrimation increased, grade 1 (6 mg continuous, n = 78) | Paronychia, grade 2 (6 mg continuous, n = 78) | Aspartate aminotransferase increased, any grade (8 mg continuous, n = 99) | Blood creatinine increased, any grade (8 mg continuous, n = 99)
16 no.: Nausea, any grade (6 mg continuous, n = 78)
7 no.: Hyponatremia, any grade (6 mg continuous, n = 78) | Nail dystrophy, any grade (6 mg continuous, n = 78) | Stomatitis, grade ≥ 3 (6 mg continuous, n = 78) | Anemia, grade 2 (8 mg continuous, n = 99) | Asthenia, grade ≥ 3 (8 mg continuous, n = 99) | Conjunctivitis, grade 2 (8 mg continuous, n = 99)
8 no.: Dry skin, grade 2 (6 mg continuous, n = 78) | Fatigue, grade 1 (6 mg continuous, n = 78) | Fatigue, grade 2 (6 mg continuous, n = 78) | Hyperphosphatemia, grade 2 (6 mg continuous, n = 78) | Insomnia, any grade (6 mg continuous, n = 78) | Onychomadesis, any grade (6 mg continuous, n = 78) | Oropharyngeal pain, any grade (6 mg continuous, n = 78) | Pyrexia, grade 1 (6 mg continuous, n = 78) | Retinal detachment, any grade (6 mg continuous, n = 78) | Weight decreased, any grade (6 mg continuous, n = 78) | Abdominal pain, any grade (8 mg continuous, n = 99) | Arthralgia, any grade (8 mg continuous, n = 99) | Aspartate aminotransferase increased, grade 1 (8 mg continuous, n = 99) | Constipation, grade 2 (8 mg continuous, n = 99)
39 no.: Diarrhea, any grade (6 mg continuous, n = 78)
31 no.: Dry mouth, any grade (6 mg continuous, n = 78)
2 no.: Dry eye, grade 2 (6 mg continuous, n = 78) | Dry mouth, grade ≥ 3 (6 mg continuous, n = 78) | Dyspnea, grade ≥ 3 (6 mg continuous, n = 78) | Hyponatremia, grade 1 (6 mg continuous, n = 78) | Insomnia, grade 2 (6 mg continuous, n = 78) | Insomnia, grade ≥ 3 (6 mg continuous, n = 78) | Onycholysis, grade 1 (6 mg continuous, n = 78) | Onychomadesis, grade 1 (6 mg continuous, n = 78) | Pain in extremity, grade 1 (6 mg continuous, n = 78) | Paronychia, grade 1 (6 mg continuous, n = 78) | Peripheral edema, grade 1 (6 mg continuous, n = 78) | Vomiting, grade 2 (6 mg continuous, n = 78) | Weight decreased, grade 2 (6 mg continuous, n = 78) | Weight decreased, grade ≥ 3 (6 mg continuous, n = 78) | Abdominal pain, grade 2 (8 mg continuous, n = 99) | Alanine aminotransferase increased, grade 2 (8 mg continuous, n = 99) | Alanine aminotransferase increased, grade ≥ 3 (8 mg continuous, n = 99) | Aspartate aminotransferase increased, grade 2 (8 mg continuous, n = 99) | Asthenia, grade 1 (8 mg continuous, n = 99)
18 no.: Dry skin, any grade (6 mg continuous, n = 78)
9 no.: Dyspepsia, any grade (6 mg continuous, n = 78) | Hand-foot syndrome, grade 2 (6 mg continuous, n = 78) | Pain in extremity, any grade (6 mg continuous, n = 78) | Urinary tract infection, grade 2 (6 mg continuous, n = 78) | Vomiting, grade 1 (6 mg continuous, n = 78) | Anemia, grade 1 (8 mg continuous, n = 99)
12 no.: Decreased appetite, grade 1 (6 mg continuous, n = 78) | Paronychia, any grade (6 mg continuous, n = 78)
4 no.: Decreased appetite, grade ≥ 3 (6 mg continuous, n = 78) | Dysgeusia, grade 2 (6 mg continuous, n = 78) | Fatigue, grade ≥ 3 (6 mg continuous, n = 78) | Hand-foot syndrome, grade 1 (6 mg continuous, n = 78) | Insomnia, grade 1 (6 mg continuous, n = 78) | Nausea, grade 2 (6 mg continuous, n = 78) | Urinary tract infection, grade ≥ 3 (6 mg continuous, n = 78) | Weight decreased, grade 1 (6 mg continuous, n = 78) | Anemia, grade ≥ 3 (8 mg continuous, n = 99) | Back pain, grade 1 (8 mg continuous, n = 99)
11 no.: Nausea, grade 1 (6 mg continuous, n = 78) | Vomiting, any grade (6 mg continuous, n = 78) | Asthenia, grade 2 (8 mg continuous, n = 99)
14 no.: Pyrexia, any grade (6 mg continuous, n = 78)
52 no.: Hyperphosphatemia, any grade (6 mg continuous, n = 78)
23 no.: Dry mouth, grade 1 (6 mg continuous, n = 78) | Alopecia, grade 1 (8 mg continuous, n = 99)
6 no.: Dry eye, any grade (6 mg continuous, n = 78) | Dry mouth, grade 2 (6 mg continuous, n = 78) | Dysgeusia, grade 1 (6 mg continuous, n = 78) | Dyspepsia, grade 1 (6 mg continuous, n = 78) | Dyspnea, any grade (6 mg continuous, n = 78) | Hematuria, any grade (6 mg continuous, n = 78) | Hypomagnesemia, any grade (6 mg continuous, n = 78) | Hypomagnesemia, grade 1 (6 mg continuous, n = 78) | Nail dystrophy, grade 1 (6 mg continuous, n = 78) | Onycholysis, grade 2 (6 mg continuous, n = 78) | Onychomadesis, grade 2 (6 mg continuous, n = 78) | Pain in extremity, grade 2 (6 mg continuous, n = 78) | Peripheral edema, any grade (6 mg continuous, n = 78) | Alopecia, grade 2 (8 mg continuous, n = 99) | Conjunctivitis, grade 1 (8 mg continuous, n = 99)
20 no.: Constipation, any grade (6 mg continuous, n = 78) | Fatigue, any grade (6 mg continuous, n = 78) | Anemia, any grade (8 mg continuous, n = 99) | Asthenia, any grade (8 mg continuous, n = 99)
29 no.: Decreased appetite, any grade (6 mg continuous, n = 78) | Alopecia, any grade (8 mg continuous, n = 99)
3 no.: Dry eye, grade 1 (6 mg continuous, n = 78) | Dyspepsia, grade 2 (6 mg continuous, n = 78) | Dyspnea, grade 2 (6 mg continuous, n = 78) | Lacrimation increased, grade 2 (6 mg continuous, n = 78) | Oropharyngeal pain, grade 2 (6 mg continuous, n = 78) | Peripheral edema, grade 2 (6 mg continuous, n = 78) | Pyrexia, grade 2 (6 mg continuous, n = 78) | Pyrexia, grade ≥ 3 (6 mg continuous, n = 78) | Retinal detachment, grade 2 (6 mg continuous, n = 78) | Vision blurred, grade 1 (6 mg continuous, n = 78) | Arthralgia, grade 2 (8 mg continuous, n = 99)
15 no.: Diarrhea, grade 2 (6 mg continuous, n = 78)
1 no.: Conjunctivitis, grade ≥ 3 (6 mg continuous, n = 78) | Dry eye, grade ≥ 3 (6 mg continuous, n = 78) | Dyspnea, grade 1 (6 mg continuous, n = 78) | Hematuria, grade ≥ 3 (6 mg continuous, n = 78) | Nail dystrophy, grade 2 (6 mg continuous, n = 78) | Nausea, grade ≥ 3 (6 mg continuous, n = 78) | Pain in extremity, grade ≥ 3 (6 mg continuous, n = 78) | Peripheral edema, grade ≥ 3 (6 mg continuous, n = 78) | Vision blurred, grade 2 (6 mg continuous, n = 78) | Vision blurred, grade ≥ 3 (6 mg continuous, n = 78) | Abdominal pain, grade ≥ 3 (8 mg continuous, n = 99) | Back pain, grade 2 (8 mg continuous, n = 99)
33 no.: Stomatitis, any grade (6 mg continuous, n = 78)
5 no.: Hematuria, grade 1 (6 mg continuous, n = 78) | Hyponatremia, grade ≥ 3 (6 mg continuous, n = 78) | Onycholysis, grade ≥ 3 (6 mg continuous, n = 78) | Oropharyngeal pain, grade 1 (6 mg continuous, n = 78) | Retinal detachment, grade 1 (6 mg continuous, n = 78) | Vision blurred, any grade (6 mg continuous, n = 78) | Abdominal pain, grade 1 (8 mg continuous, n = 99) | Arthralgia, grade 1 (8 mg continuous, n = 99) | Back pain, any grade (8 mg continuous, n = 99) | Blood creatinine increased, grade 1 (8 mg continuous, n = 99) | Blood creatinine increased, grade 2 (8 mg continuous, n = 99)
17 no.: Alanine aminotransferase increased, any grade (8 mg continuous, n = 99)
24 no.: Diarrhea, grade 1 (6 mg continuous, n = 78)
0 no.: Constipation, grade ≥ 3 (6 mg continuous, n = 78) | Diarrhea, grade ≥ 3 (6 mg continuous, n = 78) | Dry skin, grade ≥ 3 (6 mg continuous, n = 78) | Dysgeusia, grade ≥ 3 (6 mg continuous, n = 78) | Dyspepsia, grade ≥ 3 (6 mg continuous, n = 78) | Hand-foot syndrome, grade ≥ 3 (6 mg continuous, n = 78) | Hematuria, grade 2 (6 mg continuous, n = 78) | Hyperphosphatemia, grade ≥ 3 (6 mg continuous, n = 78) | Hypomagnesemia, grade 2 (6 mg continuous, n = 78) | Hypomagnesemia, grade ≥ 3 (6 mg continuous, n = 78) | Hyponatremia, grade 2 (6 mg continuous, n = 78) | Lacrimation increased, grade ≥ 3 (6 mg continuous, n = 78) | Nail dystrophy, grade ≥ 3 (6 mg continuous, n = 78) | Onychomadesis, grade ≥ 3 (6 mg continuous, n = 78) | Oropharyngeal pain, grade ≥ 3 (6 mg continuous, n = 78) | Paronychia, grade ≥ 3 (6 mg continuous, n = 78) | Retinal detachment, grade ≥ 3 (6 mg continuous, n = 78) | Urinary tract infection, grade 1 (6 mg continuous, n = 78) | Vomiting, grade ≥ 3 (6 mg continuous, n = 78) | Alopecia, grade ≥ 3 (8 mg continuous, n = 99) | Arthralgia, grade ≥ 3 (8 mg continuous, n = 99) | Aspartate aminotransferase increased, grade ≥ 3 (8 mg continuous, n = 99) | Back pain, grade ≥ 3 (8 mg continuous, n = 99) | Blood creatinine increased, grade ≥ 3 (8 mg continuous, n = 99) | Conjunctivitis, grade ≥ 3 (8 mg continuous, n = 99)
28 no.: Constipation, any grade (8 mg continuous, n = 99)
19 no.: Constipation, grade 1 (8 mg continuous, n = 99)
